Results published in paper PMC10447463, “Data-mining unveils structure–property–activity correlation of viral infectivity enhancing self-assembling peptides” (Nature Communications, 2023).
Where two headings read alike, the source gives them in different places.

Key:
[1] = tested on: HIV-1 infection of TZM-bl cells; assay: HIV-1 infectivity enhancement assay, β-galactosidase luminescence; assay type: cell-based; conditions: for Rel-EFC: infection relative to EF-C (QCKIKQIINMWQ = 1); for Log10 Infection Rel EFC: log10 of infection relative to EF-C; for Log Infectivity: Log10 infection relative to EF-C, asymmetric std dev errors; for Log10 Infection Rel EF-C: HIV-1 infection of TZM-bl cells; for Log10 of Rel to EFC (Feb2021): Log10 of infection relative to EF-C, all peptides of FigS16; for Abs. Inf.: β-galactosidase luminescence
[2] = β-sheet content by ATR-FT-IR; assay type: physicochemical; conditions: for b -sheet / %: Fig. S7 panel A, β-sheet content by ATR-FT-IR
In short: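 To obtain β-sheet content, 1 mg/mL PNF solutions are freeze-dried and the powders recorded by ATR FT-IR at 2 cm^-1 resolution with 64 scans. Free monomer for CR is removed by 3 kDa MWCO centrifugation at 4 °C, and amines in filtrate and unfiltered material are detected with fluorescamine.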

[3] = Zeta-potential measurement; assay type: physicochemical
In short: (§1)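 One-day room-temperature aggregation at 1 mg/mL in PBS (pH 7.4) preceded measurement; samples then went into 1 mM KCl. Triplicates per sample, two independent experiments averaged.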

[4] = Turbidity, derived count rate of scattered light; assay type: physicochemical; conditions: for Count Rate / kcps: derived count rate of scattered light at 633 nm, 173°, from zeta-potential measurement, 0.1 mg/mL in 1 mM KCl after 1 d at 1 mg/mL in PBS, turbidity / microscopic aggregation, mean of triplicate
In short: as §1

[5] = Turbidity, derived count rate of scattered light; assay type: physicochemical; conditions: for Count Rate: derived count rate of scattered light (turbidity); for Log10 Count Rate: turbidity, derived count rate of scattered light, data of Figure 2D
[6] = Fig. S7 panel A (plotted against β-sheet content), TZM-bl cells
[7] = Log10 of infection rate relative to EF-C, Figure 3A source data
[8] = infection rate relative to EF-C, log10, data of Figure 2D
[9] = infection rate relative to EF-C, log10, source data of Figure 2C
[10] = zeta potential of peptide assemblies
[11] = zeta-potential of peptide, source data of Figure 2C
[12] = zeta-potential of the peptide assemblies, mean, Figure 3A source data
[13] = Log10 of derived count rate of scattered light (turbidity)
[14] = log10 of derived count rate of scattered light (turbidity)
[15] = turbidity, Log10 of derived count rate of scattered light, Figure 3A source data
[16] = Fig. S7 panel B (plotted against CR), rounded to two decimals, TZM-bl cells

Row | Substance | Rel-EFC ([1]; 1.3 µM peptide) | Log10 Infection Rel EFC ([1]; 1.3 µM peptide) | Log Infectivity [1, 6] | Log10 Infection Rel EF-C [1, 7] | Log10 Infection Rel EF-C [1, 8] | Log10 Infection Rel EF-C [1, 9] | b -sheet / % [2] | Zeta-Pot. [3, 10] | Zeta-Potential / mV [3, 11] | Zeta-Potential / mV [3, 12] | Log10 Count Rate [4, 13] | Count Rate / kcps [4] | Log10 Count Rate [4, 14] | Log10 Count Rate [4, 15] | Count Rate [5] | Log10 Count Rate [5] | Log Infectivity [1, 16] | Log10 of Rel to EFC (Feb2021) [1] | Zeta-Pot. [3] | further results
1 | KAKAQANM | 0,01 | -2,05 | -2.046 | -2.05 | -2.046 | -2.046 | 32.8491% | -2.62 | -2.065 mV | -2.62 mV | 1.628 | 43 kcps | 1.628 | 1.628 | 42.5 | 1.628 | – | – | – | Inf. rel. EF-C ([1]; HIV-1 infection relative to EF-C, Fig 23 plot, panels A and B, mean of 3 values): 0.02204; Inf. rel. EF-C ([1]; HIV-1 infection relative to EF-C, Fig 23 plot, single data point, replicate 1): 0.03965; Inf. rel. EF-C ([1]; HIV-1 infection relative to EF-C, Fig 23 plot, single data point, replicate 2): 0.008224; Inf. rel. EF-C ([1]; HIV-1 infection relative to EF-C, Fig 23 plot, single data point, replicate 3): 0.01824; Abs. Inf. / RLU s-1 ([1]; absolute infection rate, peptide 1.3 µM on cells, virus preincubated 10 min with fibrils, read 3 days post infection, mean of triplicate): 497 RLU s-1; Inf. rel. EF-C ([1]; n-fold infection vs virus only, relative to that of EF-C, 1.3 µM peptide): 0.01; ß-sheet / % ([2]; ATR-FT-IR of lyophilised 1 mg/mL PNF solution, peak integral ratio 1625-1635 cm-1, measured once): 33%; Zeta pot. / mV ([3]; 1 mg/mL in PBS pH 7.4 from 10 mg/mL DMSO stock, 1 d RT, 60 µL diluted in 600 µL 1 mM KCl, Zetasizer Nano ZS, Smoluchowski, mean of triplicate): -2.6 mV; Log10 Count Rate ([4]; logarithm of count rate in kcps): 1.6
2 | CKFKQFFNMWQ | 0,61 | -0,21 | -0.2148 | -0.21 | -0.2148 | -0.2148 | 59.11% | – | 10.915 mV | 8.56 mV | 3.914 | 8210 kcps | – | 3.914 | 8210 | 3.914 | -0.21 | -0.21 | 8.563 | Abs. Inf. ([1]; absolute infection signal, HIV-1 on TZM-bl cells): 23486.66667; Log10 Inf. rel. to EF-C ([1]; log10 of HIV-1 infection of TZM-bl cells relative to EF-C (EF-C = 0)): -0.2148; Log10 Count Rate ([4]; turbidity, log10 of derived count rate of scattered light): 3.914
3 | ILKNLSRSRKIKIQINMWQ | 0,32 | -0,49 | -0.4939 | -0.49 | -0.4939 | -0.4939 | 39.13% | – | 17.9 mV | 19.2 mV | 2.486 | 307 kcps | 2.486 | 2.486 | 306.5 | 2.486 | – | -0.49 | 19.2 | Abs. Inf. ([1]; absolute HIV-1 infection signal, TZM-bl cells): 1797
4 | CSISIQINM | 0,2 | -0,7 | -0.7027 | -0.7 | -0.7027 | -0.7027 | 55.93% | -19.4 | -21.18 mV | -19.4 mV | 3.517 | 3291 kcps | 3.517 | 3.517 | 3291 | 3.517 | -0.7 | -0.7 | – | –
5 | KIKIKIQI | 0,1 | -1,01 | -1.014 | -1.01 | -1.014 | -1.014 | 40.16% | 6.97 | 9.885 mV | 6.97 mV | 3 | 999 kcps | 3 | 3 | 999.1 | 3 | -1.01 | – | – | –
6 | CKAKAQA | 0,03 | -1,5 | -1.501 | -1.5 | -1.501 | -1.501 | 34.73% | -8.01 | -5.031 mV | -8.01 mV | 2.56 | 363 kcps | 2.56 | 2.56 | 362.7 | 2.56 | -1.5 | – | – | –
